Laboratory results published in patent US11541050B2, “Pyrimidine derivatives for the treatment of viral infections” (JANSSEN SCIENCES IRELAND UC, priority 2011, dated 2023).

Experiments:
[1] = target: T1, human TLR7 (wild type sequence) (Homo sapiens, UniProt Q9NYK1); assay: TLR7 cellular NFκB-luc reporter assay, wild type TLR7; format: cell-based; set-up: unit not given here; settings: lowest effective concentration; for TLR 7 wt LEC: wild type TLR7 (compounds 74 onward); for TLR7-wt_LEC: wild type TLR7
T1 construct: expressed in transfected cells; host or cells: HEK293
T1 sequence (Q9NYK1 27-1049): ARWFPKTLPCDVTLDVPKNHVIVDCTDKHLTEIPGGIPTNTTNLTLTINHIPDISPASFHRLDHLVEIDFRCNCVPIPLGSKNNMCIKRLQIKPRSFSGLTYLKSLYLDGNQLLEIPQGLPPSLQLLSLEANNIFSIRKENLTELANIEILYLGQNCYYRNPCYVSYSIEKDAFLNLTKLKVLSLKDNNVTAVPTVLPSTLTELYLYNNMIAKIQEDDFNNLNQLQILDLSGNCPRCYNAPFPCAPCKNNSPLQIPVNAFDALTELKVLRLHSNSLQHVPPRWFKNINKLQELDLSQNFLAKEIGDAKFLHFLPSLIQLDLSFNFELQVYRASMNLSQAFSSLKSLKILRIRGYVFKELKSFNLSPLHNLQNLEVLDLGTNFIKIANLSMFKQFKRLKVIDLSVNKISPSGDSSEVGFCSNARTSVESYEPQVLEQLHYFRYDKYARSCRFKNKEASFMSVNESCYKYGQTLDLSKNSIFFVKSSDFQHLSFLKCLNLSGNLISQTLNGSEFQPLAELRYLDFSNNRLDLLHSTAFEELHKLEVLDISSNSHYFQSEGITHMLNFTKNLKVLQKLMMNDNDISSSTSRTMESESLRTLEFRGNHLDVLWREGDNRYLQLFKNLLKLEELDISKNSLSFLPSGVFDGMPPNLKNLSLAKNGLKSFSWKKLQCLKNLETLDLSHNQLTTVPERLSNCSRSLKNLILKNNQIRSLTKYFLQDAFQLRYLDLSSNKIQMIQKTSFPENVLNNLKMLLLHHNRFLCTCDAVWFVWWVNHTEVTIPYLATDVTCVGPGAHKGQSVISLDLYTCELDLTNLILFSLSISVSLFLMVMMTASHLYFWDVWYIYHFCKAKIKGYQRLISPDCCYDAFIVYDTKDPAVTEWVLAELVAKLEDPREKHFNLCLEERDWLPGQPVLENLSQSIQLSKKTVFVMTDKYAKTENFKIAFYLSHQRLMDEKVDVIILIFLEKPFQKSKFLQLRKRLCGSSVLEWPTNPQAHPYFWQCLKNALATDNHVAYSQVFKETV
Summary of the method: (§1)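 Luciferase signal read after 6 h compound incubation at 37 °C in HEK293 cells carrying transiently transfected TLR7 or TLR8 (wild type or LRR2-deletion) and NFκB-luc. Values are lowest effective concentrations from quadruplicate dose-response curves, effect ≥2-fold above assay SD.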

[2] = test system: HCV replicon in Huh-7 luc/neo cells; assay: Suppression of HCV replicon replication by conditioned media from compound-treated PBMC; format: cell-based, HCV type 1 b; settings: Hepatitis C virus; conditioned media from compound-treated PBMC on Huh-7 luc/neo replicon cells (compounds 74 onward); read-out: PBMC HUH-7 EC50
Summary of the method: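 Readout is firefly luciferase from an HCV genotype 1b NS3-NS5B bicistronic replicon in Huh-7 cells, measured 24 h after adding conditioned medium. That medium came from overnight culture of compound-treated PBMC (2×10^5/well, human AB serum, at least two donors). Interferon α-2a was the reference.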

[3] = target: T2, human TLR8 (wild type sequence) (Homo sapiens, UniProt Q9NR97); assay: TLR8 cellular NFκB-luc reporter assay, wild type TLR8; format: cell-based; set-up: unit not given here; settings: lowest effective concentration; for TLR 8 wt LEC: wild type TLR8 (compounds 74 onward)
T2 construct: expressed in transfected cells; host or cells: HEK293
T2 sequence (Q9NR97 27-1041): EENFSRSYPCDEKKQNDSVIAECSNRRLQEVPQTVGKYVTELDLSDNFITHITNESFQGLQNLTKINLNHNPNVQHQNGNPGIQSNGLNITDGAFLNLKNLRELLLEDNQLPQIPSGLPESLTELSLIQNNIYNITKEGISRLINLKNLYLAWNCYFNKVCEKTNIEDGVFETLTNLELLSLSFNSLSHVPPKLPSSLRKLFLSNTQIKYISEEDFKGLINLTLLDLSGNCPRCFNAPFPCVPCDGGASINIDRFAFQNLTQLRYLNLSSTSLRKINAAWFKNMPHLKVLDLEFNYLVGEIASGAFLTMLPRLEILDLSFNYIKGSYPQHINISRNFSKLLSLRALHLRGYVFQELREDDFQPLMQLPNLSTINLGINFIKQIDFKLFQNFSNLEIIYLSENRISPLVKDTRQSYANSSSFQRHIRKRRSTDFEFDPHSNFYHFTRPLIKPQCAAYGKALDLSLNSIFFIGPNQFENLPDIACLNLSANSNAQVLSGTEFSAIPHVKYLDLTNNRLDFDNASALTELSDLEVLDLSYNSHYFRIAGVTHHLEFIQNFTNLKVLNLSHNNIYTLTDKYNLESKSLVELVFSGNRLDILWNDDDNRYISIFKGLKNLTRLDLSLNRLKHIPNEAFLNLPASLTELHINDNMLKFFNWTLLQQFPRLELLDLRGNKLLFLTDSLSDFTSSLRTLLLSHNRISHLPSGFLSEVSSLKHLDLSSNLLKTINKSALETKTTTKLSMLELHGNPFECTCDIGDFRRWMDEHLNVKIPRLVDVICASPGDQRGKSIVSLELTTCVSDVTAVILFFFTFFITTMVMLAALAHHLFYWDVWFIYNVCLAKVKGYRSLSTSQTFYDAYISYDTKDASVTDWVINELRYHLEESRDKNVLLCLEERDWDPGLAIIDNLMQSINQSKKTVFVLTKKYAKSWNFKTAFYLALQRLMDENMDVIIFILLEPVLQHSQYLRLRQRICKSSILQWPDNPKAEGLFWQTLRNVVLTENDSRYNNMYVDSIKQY
Summary of the method: as §1

[4] = test system: human TLR7 mutant sequence comprising a deletion in the second leucine-rich repeat; assay: TLR7 cellular NFκB-luc reporter assay, mutant TLR7 with deletion in the second leucine-rich repeat; format: cell-based; set-up: unit not given here; settings: lowest effective concentration
Experimental: The ability of compounds to activate human TLR7 and/or TLR8 was assessed in a cellular reporter assay using HEK293 cells transiently transfected with a TLR7 or TLR8 expression vector and NFκB-luc reporter construct. In one instance the TLR expression construct expresses the respective wild type sequence or a mutant sequence comprising a deletion in the second leucine-rich repeat of the TLR.
Briefly, HEK293 cells were grown in culture medium (DMEM supplemented with 10% FCS and 2 mM Glutamine). For transfection of cells in 10 cm dishes, cells were detached with Trypsin-EDTA, transfected with a mix of CMV-TLR7 or TLR8 plasmid (750 ng), NFκB-luc plasmid (375 ng) and a transfection reagent and incubated for 48 hours at 37° C. in a humidified 5% CO2 atmosphere. […] Thirty microliters of cells were then dispensed into each well in 384-well plates, where 10 μL of compound in 4% DMSO was already present. Following 6 hours incubation at 37° C., 5% CO2, the luciferase activity was determined by adding 15 μl of Steady Lite Plus substrate (Perkin Elmer) to each well and readout performed on a ViewLux ultraHTS microplate imager (Perkin Elmer). Dose response curves were generated from measurements performed in quadruplicates.

Structure (SMILES) | TLR 7 wt LEC [1] | EC50 [2] [nM] | TLR 8 wt LEC [3] | TLR7-dIRR2_LEC [4] | TLR7-wt_LEC [1] | TLR8-wt_LEC [3]
CCC[C@H](CCO)Nc1nc(N)ncc1OCc1ccccc1 [Compound 190] | 8.620 | 3230 | 4.330 |  |  | 
CCC[C@@H](CO)Nc1nc(N)ncc1OCc1ccc2ccccc2n1 [Compound 192] | 0.080 | 44 | 0.220 |  |  | 
CCCC[C@@H](CO)Nc1nc(N)ncc1OCc1ncc(C)c(OC)c1C [Compound 194] | 0.031 | 19 | 0.164 |  |  | 
CCC[C@@H](CO)Nc1nc(N)ncc1OCc1nccc2ccccc12 [Compound 195] | 0.003 | 3 | 0.056 |  |  | 
CCC[C@@H](CO)Nc1nc(N)ncc1OCCOC [Compound 196] |  |  |  | 0.469 | 1.900 | 0.687
CCCC[C@@H](CO)Nc1nc(N)ncc1OCCOC [Compound 197] |  |  |  | 0.624 | 2.650 | 0.767
CCCC[C@@H](CO)Nc1nc(N)ncc1OCc1ccc2ccccc2n1 [Compound 198] |  |  |  | 0.511 | 0.076 | 0.089
CCC[C@@H](CO)Nc1nc(N)ncc1OCCCc1ccc(OC)cc1 [Compound 200] |  |  |  | 0.181 | 0.253 | 0.200
CCCC[C@@H](CO)Nc1nc(N)ncc1OCCCc1ccc(OC)cc1 [Compound 201] |  |  |  | 0.647 | 0.566 | 0.758
CCC[C@@H](CO)Nc1nc(N)ncc1OCc1cccc(C)n1 [Compound 202] |  |  |  | 0.089 | 0.164 | 0.049
CCCC[C@@H](CO)Nc1nc(N)ncc1OCc1cccc(C)n1 [Compound 203] |  |  |  | 0.160 | 0.124 | 0.054
CCC[C@@H](CO)Nc1nc(N)ncc1OCCCc1ccc2c(c1)OCO2 [Compound 204] |  |  |  | 0.791 | 0.791 | 0.493
CCC[C@@H](CCO)Nc1nc(N)ncc1OCc1cn2ccccc2n1 [Compound 205] |  |  |  | 1.110 | 0.369 | 0.047
CCCCNc1nc(N)ncc1OCC1(C)COC1 [Compound 206] |  |  |  | 9.450 | >25 | >23.81
CCCC[C@@H](CCO)Nc1nc(N)ncc1OCc1cn2ccccc2n1 [Compound 207] |  |  |  | 1.450 | 0.177 | 0.063
